Values quoted from earlier work in US12263152B2, “Method of preventing and treating chemotherapy-induced alopecia” (JJR&D, LLC, priority 2022, dated 2025).
Read-outs that look alike come from different tables or passages of the source.

Tests used:
CIA [1] = conditions: neonatal rat model
CIA [2] = conditions: studies on humans
[3] = test system: most commonly used alopecic chemotherapies; conditions: topical pretreatment, rats
[4] = test system: cyclophosphamide-induced alopecia; conditions: animal studies

For `Cl[TeH]1(Cl)(Cl)OCCO1` [AS101], which “Protective role against CIA” value (CIA [1]) is on record?
Its value is “protective role”.

What about the “Protective role against CIA” value (CIA [2]) of the same compound?
Its value is “protective role”.

Which results are given for `C=C1/C(=C\C=C2/CCC[C@]3(C)[C@@H]([C@H](C)CCCC(C)(C)O)CC[C@@H]23)C[C@@H](O)C[C@@H]1O` [Calcitriol, 1,25-(OH)2D3]?
Protection from the most commonly used alopecic chemotherapies [3]: protected; Patients with alopecia of <50% from baseline (alopecia; Week 7, of 23 female patients, topical 5-80 μg/mL twice daily): 8 patients; Patients with <50% alopecia maintained (alopecia; Week 15, of 23 female patients, topical 5-80 μg/mL twice daily): 2 patients; Maximum tolerated dose (alopecia; topical drug product, dose escalation up to 80 μg/mL twice daily): not reached

For epidermal growth factor, which “Protection from cyclophosphamide (CTX)-induced alopecia” value [4] is on record?
Its value is “lack of protection”.

For “recombinant interleukin 1 β: recombinant interleukin 1 β”, which “Protection from cyclophosphamide (CTX)-induced alopecia” value [4] is on record?
Its value is “lack of protection”.
